Measurements from patent publication US20210024545A1, “SUBSTITUTED DIAZAHETERO-BICYCLIC COMPOUNDS AND THEIR USE” (Bayer Aktiengesellschaft, priority 2016, published 2021).

Experiments:
human TASK-1 = human TASK-1 (Homo sapiens, UniProt O14649); assay: Inhibition of recombinant TASK-1 in stably transfected CHO cells, KCl-induced depolarization, voltage-sensitive dye (B-2); type: cell-based; design: expressed in transfected cells; host or cells: stably transfected CHO cells; conditions: depolarization induced by 40 mM potassium chloride, some mean values from multiple determinations
Summary of the method: (§1)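 Stably transfected CHO cells loaded with a voltage-sensitive membrane potential dye. Depolarization was induced with 40 mM KCl, and compound inhibition of it was read by fluorescence. IC50 is the concentration blocking half of the KCl-induced depolarization; some values are means of multiple independent determinations.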

human TASK-3 = human TASK-3 (Homo sapiens, UniProt Q9NPC2); assay: Inhibition of recombinant TASK-3 in stably transfected CHO cells, KCl-induced depolarization, voltage-sensitive dye (B-2); type: cell-based; design: expressed in transfected cells; host or cells: stably transfected CHO cells; conditions: depolarization induced by 40 mM potassium chloride, some mean values from multiple determinations
Summary of the method: as §1

Chain of human TASK-1 (O14649 whole entry): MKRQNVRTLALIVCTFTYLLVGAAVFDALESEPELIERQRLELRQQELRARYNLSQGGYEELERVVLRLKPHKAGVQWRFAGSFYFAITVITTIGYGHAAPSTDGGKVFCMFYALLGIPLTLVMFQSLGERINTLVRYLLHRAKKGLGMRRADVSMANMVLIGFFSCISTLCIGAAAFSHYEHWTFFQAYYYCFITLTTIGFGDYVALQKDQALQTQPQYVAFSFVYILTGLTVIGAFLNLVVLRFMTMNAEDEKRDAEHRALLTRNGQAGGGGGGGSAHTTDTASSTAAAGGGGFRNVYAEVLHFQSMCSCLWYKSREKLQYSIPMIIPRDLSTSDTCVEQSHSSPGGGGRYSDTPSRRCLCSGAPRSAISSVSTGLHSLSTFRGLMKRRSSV
Chain of human TASK-3 (Q9NPC2 whole entry): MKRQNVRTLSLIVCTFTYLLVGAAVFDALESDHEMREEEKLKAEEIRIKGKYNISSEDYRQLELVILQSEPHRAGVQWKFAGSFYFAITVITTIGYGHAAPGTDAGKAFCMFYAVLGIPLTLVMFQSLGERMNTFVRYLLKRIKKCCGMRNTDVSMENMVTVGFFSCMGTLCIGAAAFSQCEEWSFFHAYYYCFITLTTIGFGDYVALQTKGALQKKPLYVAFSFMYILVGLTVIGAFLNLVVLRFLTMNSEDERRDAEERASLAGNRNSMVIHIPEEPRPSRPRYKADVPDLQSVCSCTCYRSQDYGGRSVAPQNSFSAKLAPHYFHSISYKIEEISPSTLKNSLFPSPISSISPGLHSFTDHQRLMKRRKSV

SMILES	IC50 (human TASK-1) [nM]	IC50 (human TASK-3) [nM]
O=C(NC1CCCCC1)N1C2CCC1CN(Cc1c(-c3ccc(Cl)cc3)nc3ccccn13)C2 [Example 164, 3-{[2-(4-Chlorophenyl)imidazo[1,2-a]pyridin-3-yl]methyl}-N-cyclohexyl-3,8-diazabicyclo[3.2.1]octane-8-carboxamide]	3100	1000
CC(C)c1ccccc1C(=O)N1C2COCC1CN(Cc1c(-c3ccc(Cl)cc3)nc3ccccn13)C2 [Example 73]	160	9.6
COc1ccc(C)c(C(=O)N2C3CC2CN(Cc2c(-c4ccc(Cl)cc4)nc4ccccn24)C3)n1 [Example 142, (3-{[2-(4-Chlorophenyl)imidazo[1,2-a]pyridin-3-yl]methyl}-3,6-diazabicyclo[3.1.1]hept-6-yl)(6-methoxy-3-methylpyridin-2-yl)methanone]	240	98
O=C(c1cccc(OC(F)(F)F)n1)N1C2COCC1CN(Cc1c(-c3ccc(Cl)cn3)nc3ccccn13)C2 [Example 135, (7-{[2-(5-Chloropyridin-2-yl)imidazo[1,2-a]pyridin-3-yl]methyl}-3-oxa-7,9-diazabicyclo[3.3.1]non-9-yl)[6-(trifluoromethoxy)pyridin-2-yl]methanone]	4100	160
CC(C)(C)OC(=O)N1C2CCC1CN(Cc1c(-c3ccc(Cl)cn3)nc3ccccn13)C2 [Example 14]	5100	860
CCN(C(=O)N1C2CCC1CN(Cc1c(-c3ccc(Cl)cc3)nc3ccccn13)C2)c1ccc(C)cc1 [Example 181, 3-{[2-(4-Chlorophenyl)imidazo[1,2-a]pyridin-3-yl]methyl}-N-ethyl-N-(4-methylphenyl)-3,8-diazabicyclo[3.2.1]octane-8-carboxamide]	4100	1000
Cc1cccc(Cl)c1NC(=O)N1C2COCC1CN(Cc1c(-c3ccc(Cl)cc3)nc3ccccn13)C2 [Example 169, N-(2-Chloro-6-methylphenyl)-7-{[2-(4-chlorophenyl)imidazo[1,2-a]pyridin-3-yl]methyl}-3-oxa-7,9-diazabicyclo[3.3.1]nonane-9-carboxamide]	3600	110
O=C(C1CCCC1)N1CC2CCC1CN2Cc1c(-c2ccc(Cl)cc2)nc2ccccn12 (single isomer, unassigned) [Example 37]	350	63
CC(C)N(C)C(=O)N1C2CCC1CN(Cc1c(-c3ccc(Cl)cc3)nc3ccccn13)C2 [Example 178, 3-{[2-(4-Chlorophenyl)imidazo[1,2-a]pyridin-3-yl]methyl}-N-isopropyl-N-methyl-3,8-diazabicyclo[3.2.1]octane-8-carboxamide]	290	17
O=C(Nc1cc(C(F)(F)F)ccc1Cl)N1C2CCC1CN(Cc1c(-c3ccc(Cl)cc3)nc3ccccn13)C2 [Example 160, 3-{[2-(4-Chlorophenyl)imidazo[1,2-a]pyridin-3-yl]methyl}-N-[2-chloro-5-(trifluoromethyl)phenyl]-3,8-diazabicyclo[3.2.1]octane-8-carboxamide]	7600	1000
O=C(c1cc(F)ccc1Cl)N1C2CC1CN(Cc1c(-c3ccc(Cl)cc3)nc3ccccn13)C2 [Example 119]	1100	1500
O=C(N1CCOCC1)N1C2COCC1CN(Cc1c(-c3ccc(Cl)cc3)nc3ccccn13)C2 [Example 189, (7-{[2-(4-Chlorophenyl)imidazo[1,2-a]pyridin-3-yl]methyl}-3-oxa-7,9-diazabicyclo[3.3.1]non-9-yl)(morpholin-4-yl)methanone]	8300	520
COc1cccc(C(=O)N2CC3CCC(C2)N3Cc2c(-c3ccc(Br)cc3)nc3ccccn23)c1 [Example 84]	1100	400
COc1ccc(F)c(C(=O)N2C3CCC2CN(Cc2c(-c4ccc(Br)cc4)nc4ccccn24)C3)n1 [Example 140, (3-{[2-(4-Bromophenyl)imidazo[1,2-a]pyridin-3-yl]methyl}-3,8-diazabicyclo[3.2.1]oct-8-yl)(3-fluoro-6-methoxypyridin-2-yl)methanone]	160	21
O=C(OC1CCCC1)N1C2CCC1CN(Cc1c(-c3ccc(Cl)cc3)nc3ccccn13)C2 [Example 186, Cyclopentyl 3-{[2-(4-chlorophenyl)imidazo[1,2-a]pyridin-3-yl]methyl}-3,8-diazabicyclo[3.2.1]octane-8-carboxylate]	730	44
O=C(c1ccncc1)N1CC2CCC1CN2Cc1c(-c2ccc(Cl)cc2)nc2ccccn12 (single isomer, unassigned) [Example 55]	2000	320
Cc1ccccc1C(=O)N1C2CCC1CN(Cc1c(-c3ccc(Cl)cc3)nc3ccccn13)C2 [Example 100]	250	17
Cc1ccc(F)cc1C(=O)N1CC2CCC1CN2Cc1c(-c2ccc(Cl)cc2)nc2ccccn12 (single isomer, unassigned) [Example 47]	70	15
COc1cccc(C(=O)N2CC3CCC(C2)N3Cc2c(-c3ccc(Br)cc3)nc3ccccn23)n1 [Example 83]	134	14
CC(C)(C)OC(=O)N1C2CCC1CN(Cc1c(-c3ccc(Br)cc3)nc3ccccn13)C2 [Example 11]	1400	940

SMILES	IC50 (human TASK-1) [nM]	IC50 (human TASK-3) [nM]
Cc1cnc(C(=O)N2C3CCC2CN(Cc2c(-c4ccc(Cl)cc4)nc4ccccn24)C3)s1 [Example 149, (3-{[2-(4-Chlorophenyl)imidazo[1,2-a]pyridin-3-yl]methyl}-3,8-diazabicyclo[3.2.1]oct-8-yl)(5-methyl-1,3-thiazol-2-yl)methanone]	3000	300
O=C(Nc1ccccc1F)N1C2CCC1CN(Cc1c(-c3ccc(Cl)cc3)nc3ccccn13)C2 [Example 155, 3-{[2-(4-Chlorophenyl)imidazo[1,2-a]pyridin-3-yl]methyl}-N-(2-fluorophenyl)-3,8-diazabicyclo[3.2.1]octane-8-carboxamide]	610	210
O=C(c1ccccc1F)N1C2CCC1CN(Cc1c(-c3ccc(Br)cc3)nc3ccccn13)C2 [Example 97]	390	7.8
Cc1ccc(C)c(NC(=O)N2C3CCC2CN(Cc2c(-c4ccc(Cl)cc4)nc4ccccn24)C3)c1 [Example 163, 3-{[2-(4-Chlorophenyl)imidazo[1,2-a]pyridin-3-yl]methyl}-N-(2,5-dimethylphenyl)-3,8-diazabicyclo[3.2.1]octane-8-carboxamide]	1400	160
CC(C)c1ccc(-c2nc3ccccn3c2CN2CC3CCC(C2)N3C(=O)c2ccccc2F)cc1 [Example 110]	780	300
O=C(c1ccccc1F)N1CC2CCC1CN2Cc1c(-c2ccc(Cl)cc2)nc2ccccn12 (single isomer, unassigned) [Example 36]	670	250
COc1ccc(C)c(C(=O)N2CC3CCC2CN3Cc2c(-c3ccc(C(C)C)cc3)nc3ccccn23)n1 (single isomer, unassigned) [Example 137]	190	14
O=C(Nc1c(Cl)cccc1Cl)N1C2CCC1CN(Cc1c(-c3ccc(Cl)cc3)nc3ccccn13)C2 [Example 156, 3-{[2-(4-Chlorophenyl)imidazo[1,2-a]pyridin-3-yl]methyl}-N-(2,6-dichlorophenyl)-3,8-diazabicyclo[3.2.1]octane-8-carboxamide]	1200	15
CC(C)c1ccc(-c2nc3ccccn3c2CN2C3CCC2CN(C(=O)c2ccccc2F)C3)cc1 [Example 94]	530	130
CC(C)c1ccc(-c2nc3ccccn3c2CN2CC3CCC2CN3C(=O)c2ccccc2F)cc1 (single isomer, unassigned) [Example 57]	1400	240
O=C(C1CCCCC1)N1C2CCC1CN(Cc1c(-c3ccc(Cl)cc3)nc3ccccn13)C2 [Example 105]	830	20
CCN(C(=O)N1C2CCC1CN(Cc1c(-c3ccc(Cl)cc3)nc3ccccn13)C2)c1ccccc1 [Example 177, 3-{[2-(4-Chlorophenyl)imidazo[1,2-a]pyridin-3-yl]methyl}-N-ethyl-N-phenyl-3,8-diazabicyclo[3.2.1]octane-8-carboxamide]	4000	130
COc1cccc(C(=O)N2C3CCC2CN(Cc2c(-c4ccc(Br)cc4)nc4ccccn24)C3)n1 [Example 98]	450	14
COc1cccc(C(=O)N2CC3CCC2CN3Cc2c(-c3ccc(Cl)cn3)nc3ccccn23)n1 (stereo not drawn) [Example 65]	2000	460
CC(C)(C)OC(=O)N1C2CCC1CN(Cc1c(-c3ccc(Cl)cc3)nc3ccccn13)C2 [Example 10]	1090	230
O=C(c1cccc(OC(F)(F)F)c1)N1C2CC1CN(Cc1c(-c3ccc(Cl)cc3)nc3ccccn13)C2 [Example 120]	1100	180
CC(C)(C)OC(=O)N1CC2CCC(C1)N2Cc1c(-c2ccc(Cl)cc2)nc2ccccn12 [Example 6]	394	410
COc1ccc(Cl)c(C(=O)N2C3COCC2CN(Cc2c(-c4ccc(Cl)cn4)nc4ccccn24)C3)n1 [Example 136, (3-Chloro-6-methoxypyridin-2-yl)(7-{[2-(5-chloropyridin-2-yl)imidazo[1,2-a]pyridin-3-yl]methyl}-3-oxa-7,9-diazabicyclo[3.3.1]non-9-yl)methanone]	9300	44
CC(C)c1ccc(-c2nc3ccccn3c2CN2CC3CCC2CN3C(=O)C2CCCC2)cc1 (single isomer, unassigned) [Example 63]	490	140
